Test results published in ChEMBL document CHEMBL3885861, “Open TG-GATES”.

Species on record: Rattus norvegicus
Experiment: Open TG-GATES - Regimen: Single
Format: toxicity, organism-based, Sprague-Dawley
Design: regimen Single, gender Male, age 6 weeks
Settings: in vivo, po, route gavage; for Bas / Eos / Fbg / Hb / Lym / MCH / MCHC / MCV / Mono / Neu / RBC / Ret / WBC / APTT: tissue Blood; for KIDNEY_L / KIDNEY_R / KIDNEY_TOTAL: tissue Kidney; for LIVER: tissue Liver; for ALP / ALT / AST / CRE / Ca / Cl / DBIL / GLC / IP / K / LDH / Na / PL / RALB / TBIL / TC / TG / TP / gamma-GTP: tissue Plasma
[1] = 75 mg/kg, 3 h, dose level Middle
[2] = 75 mg/kg, 6 h, dose level Middle
[3] = 75 mg/kg, 9 h, dose level Middle
[4] = 75 mg/kg, 24 h, dose level Middle
[5] = 250 mg/kg, 3 h, dose level High
[6] = 250 mg/kg, 6 h, dose level High
[7] = 250 mg/kg, 9 h, dose level High
[8] = 250 mg/kg, 24 h, dose level High

O=C1CN(/N=C/c2ccc(-c3ccc([N+](=O)[O-])cc3)o2)C(O)=N1 [DANTROLENE]
Bas [1]: 0%
Eos [1]: 1%
Fbg [1]: 217.6 mg/dL
Hb [1]: 14.2 g/dL
Lym [1]: 70.4%
MCH [1]: 22.7 pg
MCHC [1]: 34.1%
MCV [1]: 66.7 fL
Mono [1]: 8%
Neu [1]: 20.6%
RBC [1]: 623.6 x10_4/ul
Ret [1]: 10.8%
WBC [1]: 82.6 x10_2/uL
KIDNEY_L [1]: 0.9 g
KIDNEY_R [1]: 1 g
KIDNEY_TOTAL [1]: 1.9 g
LIVER [1]: 9.5 g
ALP [1]: 747.2 IU/L
ALT [1]: 32.4 IU/L
AST [1]: 60.2 IU/L
CRE [1]: 0.5 mg/dL
Ca [1]: 10.3 mg/dL
Cl [1]: 101.4 meq/L
DBIL [1]: 0.06 mg/dL
GLC [1]: 213.4 mg/dL
IP [1]: 11.1 mg/dL
K [1]: 4.7 meq/L
LDH [1]: 105.8 IU/L
Na [1]: 138 meq/L
PL [1]: 148.2 mg/dL
RALB [1]: 3.9 g/dL
TBIL [1]: 0.3 mg/dL
TC [1]: 85.4 mg/dL
TG [1]: 41.4 mg/dL
TP [1]: 5.7 g/dL
gamma-GTP [1]: 1.8 IU/L
TERMINAL_BW [2]: 191.2 g
APTT [2]: 17 s
Bas [2]: 0%
Eos [2]: 1%
Fbg [2]: 220.6 mg/dL
Hb [2]: 14.6 g/dL
Lym [2]: 73.2%
MCH [2]: 22.4 pg
MCHC [2]: 34.3%
MCV [2]: 65.2 fL
Mono [2]: 8.6%
Neu [2]: 17.2%
RBC [2]: 650.4 x10_4/ul
Ret [2]: 12.7%
WBC [2]: 82.9 x10_2/uL
KIDNEY_L [2]: 0.9 g
KIDNEY_R [2]: 0.9 g
KIDNEY_TOTAL [2]: 1.9 g
LIVER [2]: 9 g
ALP [2]: 749.6 IU/L
ALT [2]: 34 IU/L
AST [2]: 64.2 IU/L
CRE [2]: 0.5 mg/dL
Ca [2]: 10.3 mg/dL
Cl [2]: 102.8 meq/L
DBIL [2]: 0.06 mg/dL
GLC [2]: 211.4 mg/dL
IP [2]: 9.6 mg/dL
K [2]: 4.6 meq/L
LDH [2]: 102 IU/L
Na [2]: 138.8 meq/L
PL [2]: 141.8 mg/dL
RALB [2]: 3.8 g/dL
TBIL [2]: 0.3 mg/dL
TC [2]: 80.4 mg/dL
TG [2]: 30.4 mg/dL
TP [2]: 5.6 g/dL
gamma-GTP [2]: 1.6 IU/L
TERMINAL_BW [3]: 191.7 g
APTT [3]: 16.9 s
Bas [3]: 0%
Eos [3]: 1%
Fbg [3]: 217.8 mg/dL
Hb [3]: 14.3 g/dL
Lym [3]: 78.2%
MCH [3]: 21.6 pg
MCHC [3]: 32.9%
MCV [3]: 65.6 fL
Mono [3]: 7.4%
RBC [3]: 663.8 x10_4/ul
Ret [3]: 9.8%
WBC [3]: 74.6 x10_2/uL
KIDNEY_L [3]: 0.9 g
KIDNEY_R [3]: 0.9 g
KIDNEY_TOTAL [3]: 1.8 g
LIVER [3]: 8.2 g
ALP [3]: 710.6 IU/L
ALT [3]: 23.2 IU/L
AST [3]: 53 IU/L
CRE [3]: 0.5 mg/dL
Ca [3]: 10.4 mg/dL
Cl [3]: 105.2 meq/L
DBIL [3]: 0.054 mg/dL
GLC [3]: 205.8 mg/dL
IP [3]: 9.5 mg/dL
K [3]: 5.2 meq/L
LDH [3]: 103.2 IU/L
Na [3]: 138.2 meq/L
PL [3]: 148 mg/dL
RALB [3]: 3.8 g/dL
TBIL [3]: 0.4 mg/dL
TC [3]: 87.4 mg/dL
TG [3]: 26.4 mg/dL
TP [3]: 5.5 g/dL
gamma-GTP [3]: 1.6 IU/L
TERMINAL_BW [4]: 190.1 g
APTT [4]: 16.9 s
Bas [4]: 0%
Eos [4]: 0.8%
Fbg [4]: 202.2 mg/dL
Hb [4]: 13.8 g/dL
Lym [4]: 86.2%
MCH [4]: 21.9 pg
MCHC [4]: 33.6%
MCV [4]: 65.3 fL
Mono [4]: 7.2%
Neu [4]: 6.2%
RBC [4]: 631 x10_4/ul
Ret [4]: 11.5%
WBC [4]: 86.1 x10_2/uL
KIDNEY_L [4]: 0.9 g
KIDNEY_R [4]: 0.9 g
KIDNEY_TOTAL [4]: 1.9 g
LIVER [4]: 9 g
ALP [4]: 1061.6 IU/L
ALT [4]: 32.8 IU/L
AST [4]: 56.2 IU/L
CRE [4]: 0.5 mg/dL
Ca [4]: 10.9 mg/dL
Cl [4]: 105 meq/L
DBIL [4]: 0.018 mg/dL
GLC [4]: 189 mg/dL
IP [4]: 7.7 mg/dL
K [4]: 4.3 meq/L
LDH [4]: 104.6 IU/L
Na [4]: 141.4 meq/L
PL [4]: 147.8 mg/dL
RALB [4]: 3.9 g/dL
TBIL [4]: 0.4 mg/dL
TC [4]: 83.6 mg/dL
TG [4]: 73.2 mg/dL
TP [4]: 5.7 g/dL
gamma-GTP [4]: 1 IU/L
TERMINAL_BW [5]: 193.5 g
APTT [5]: 16.6 s
Bas [5]: 0%
Eos [5]: 1.4%
Fbg [5]: 218.2 mg/dL
Hb [5]: 14.5 g/dL
Lym [5]: 76.6%
MCH [5]: 22 pg
MCHC [5]: 34.2%
MCV [5]: 64.3 fL
Mono [5]: 6.8%
Neu [5]: 15%
RBC [5]: 658 x10_4/ul
Ret [5]: 11.7%
WBC [5]: 67.2 x10_2/uL
KIDNEY_L [5]: 0.9 g
KIDNEY_R [5]: 0.9 g
KIDNEY_TOTAL [5]: 1.9 g
LIVER [5]: 9.3 g
ALP [5]: 867.8 IU/L
ALT [5]: 35.6 IU/L
AST [5]: 68.8 IU/L
CRE [5]: 0.5 mg/dL
Ca [5]: 10.4 mg/dL
Cl [5]: 100.6 meq/L
DBIL [5]: 0.056 mg/dL
GLC [5]: 223.4 mg/dL
IP [5]: 10.3 mg/dL
K [5]: 4.5 meq/L
LDH [5]: 100.4 IU/L
Na [5]: 138.4 meq/L
PL [5]: 142 mg/dL
RALB [5]: 3.9 g/dL
TBIL [5]: 0.3 mg/dL
TC [5]: 81 mg/dL
TG [5]: 41.8 mg/dL
TP [5]: 5.7 g/dL
gamma-GTP [5]: 2.2 IU/L
TERMINAL_BW [6]: 189.5 g
APTT [6]: 17.8 s
Bas [6]: 0%
Eos [6]: 0.8%
Fbg [6]: 212.2 mg/dL
Hb [6]: 14.7 g/dL
Lym [6]: 68.4%
MCH [6]: 22.4 pg
MCHC [6]: 34.4%
MCV [6]: 65.2 fL
Mono [6]: 6.2%
Neu [6]: 24.6%
RBC [6]: 656.8 x10_4/ul
Ret [6]: 12.9%
WBC [6]: 66.9 x10_2/uL
KIDNEY_L [6]: 0.9 g
KIDNEY_R [6]: 0.9 g
KIDNEY_TOTAL [6]: 1.8 g
LIVER [6]: 8.3 g
ALP [6]: 725.6 IU/L
ALT [6]: 29.6 IU/L
AST [6]: 58.6 IU/L
CRE [6]: 0.5 mg/dL
Ca [6]: 10.3 mg/dL
Cl [6]: 102.4 meq/L
DBIL [6]: 0.086 mg/dL
GLC [6]: 219.6 mg/dL
IP [6]: 9 mg/dL
K [6]: 4.4 meq/L
LDH [6]: 110.6 IU/L
Na [6]: 137.6 meq/L
PL [6]: 133.4 mg/dL
RALB [6]: 3.9 g/dL
TBIL [6]: 0.3 mg/dL
TC [6]: 79.2 mg/dL
TG [6]: 19.2 mg/dL
TP [6]: 5.6 g/dL
gamma-GTP [6]: 1.2 IU/L
TERMINAL_BW [7]: 185.8 g
APTT [7]: 19.1 s
Bas [7]: 0%
Eos [7]: 0.2%
Fbg [7]: 216.8 mg/dL
Hb [7]: 14.5 g/dL
Lym [7]: 77.8%
MCH [7]: 21.6 pg
MCHC [7]: 32.9%
MCV [7]: 65.6 fL
Mono [7]: 5.8%
Neu [7]: 15.8%
RBC [7]: 669.4 x10_4/ul
Ret [7]: 12.3%
WBC [7]: 55.5 x10_2/uL
KIDNEY_L [7]: 0.9 g
KIDNEY_R [7]: 0.9 g
KIDNEY_TOTAL [7]: 1.8 g
LIVER [7]: 8 g
ALP [7]: 664.6 IU/L
ALT [7]: 21.4 IU/L
AST [7]: 50.4 IU/L
CRE [7]: 0.6 mg/dL
Ca [7]: 10.5 mg/dL
Cl [7]: 103.6 meq/L
DBIL [7]: 0.064 mg/dL
GLC [7]: 212.2 mg/dL
IP [7]: 8.9 mg/dL
K [7]: 4.9 meq/L
LDH [7]: 89.8 IU/L
Na [7]: 136.8 meq/L
PL [7]: 144.2 mg/dL
RALB [7]: 3.8 g/dL
TBIL [7]: 0.4 mg/dL
TC [7]: 90.2 mg/dL
TG [7]: 17.2 mg/dL
TP [7]: 5.7 g/dL
gamma-GTP [7]: 1.4 IU/L
TERMINAL_BW [8]: 185 g
APTT [8]: 17.5 s
Bas [8]: 0%
Eos [8]: 0.8%
Fbg [8]: 207 mg/dL
Hb [8]: 14.7 g/dL
Lym [8]: 87.6%
MCH [8]: 21.8 pg
MCHC [8]: 33.4%
MCV [8]: 65.3 fL
Mono [8]: 5.8%
Neu [8]: 5.8%
RBC [8]: 675 x10_4/ul
Ret [8]: 13%
WBC [8]: 72.5 x10_2/uL
KIDNEY_L [8]: 0.9 g
KIDNEY_R [8]: 0.9 g
KIDNEY_TOTAL [8]: 1.9 g
LIVER [8]: 8.6 g
ALP [8]: 722.6 IU/L
ALT [8]: 24.6 IU/L
AST [8]: 46.2 IU/L
CRE [8]: 0.5 mg/dL
Ca [8]: 11.1 mg/dL
Cl [8]: 103.4 meq/L
DBIL [8]: 0.022 mg/dL
GLC [8]: 191.2 mg/dL
IP [8]: 9.1 mg/dL
K [8]: 4.8 meq/L
LDH [8]: 102.8 IU/L
Na [8]: 140.6 meq/L
PL [8]: 136 mg/dL
RALB [8]: 4 g/dL
TBIL [8]: 0.3 mg/dL
TC [8]: 79.6 mg/dL
TG [8]: 21.8 mg/dL
TP [8]: 5.7 g/dL
gamma-GTP [8]: 1.6 IU/L
